# Biological target: AChE (Homo sapiens, UniProt P22303)
# Test: AChE inhibition by BCP
# Assay type: biochemical
# Chain of AChE (P22303 32-614): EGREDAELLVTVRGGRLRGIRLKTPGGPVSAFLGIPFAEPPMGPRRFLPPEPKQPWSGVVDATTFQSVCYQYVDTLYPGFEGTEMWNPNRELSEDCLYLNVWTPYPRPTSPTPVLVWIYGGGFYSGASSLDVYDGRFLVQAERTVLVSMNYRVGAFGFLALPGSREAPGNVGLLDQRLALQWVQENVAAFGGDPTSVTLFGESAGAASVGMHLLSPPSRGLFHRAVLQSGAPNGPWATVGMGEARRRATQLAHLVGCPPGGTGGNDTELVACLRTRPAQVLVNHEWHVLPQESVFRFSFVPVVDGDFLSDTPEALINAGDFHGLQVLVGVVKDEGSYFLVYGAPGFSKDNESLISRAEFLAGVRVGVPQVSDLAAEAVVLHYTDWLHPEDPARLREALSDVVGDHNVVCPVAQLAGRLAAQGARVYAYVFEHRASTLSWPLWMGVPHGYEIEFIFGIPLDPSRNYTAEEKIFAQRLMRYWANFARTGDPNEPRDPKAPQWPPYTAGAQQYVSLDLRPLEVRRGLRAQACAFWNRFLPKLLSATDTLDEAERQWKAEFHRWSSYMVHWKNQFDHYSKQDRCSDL
smiles,measurement,value
"Oc1ccc(Br)cc1Cl [BCP, 4-bromo-2-chlorophenol]",AChE inhibition,not inhibit AChE
